Laboratory results taken from ChEMBL document CHEMBL1201862, “PubChem BioAssay data set” (2004).
Calls of active or inactive are those of the source.

How the values were obtained:
[1] = biological target: T1, Sentrin-specific protease 7 (Homo sapiens, UniProt Q9BQF6); format: functional;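 also: Luminescence-based dose-response confirmation of ultra-high-throughput screening hits, measuring inhibition of SENP7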
T1 sequence (Q9BQF6 whole entry): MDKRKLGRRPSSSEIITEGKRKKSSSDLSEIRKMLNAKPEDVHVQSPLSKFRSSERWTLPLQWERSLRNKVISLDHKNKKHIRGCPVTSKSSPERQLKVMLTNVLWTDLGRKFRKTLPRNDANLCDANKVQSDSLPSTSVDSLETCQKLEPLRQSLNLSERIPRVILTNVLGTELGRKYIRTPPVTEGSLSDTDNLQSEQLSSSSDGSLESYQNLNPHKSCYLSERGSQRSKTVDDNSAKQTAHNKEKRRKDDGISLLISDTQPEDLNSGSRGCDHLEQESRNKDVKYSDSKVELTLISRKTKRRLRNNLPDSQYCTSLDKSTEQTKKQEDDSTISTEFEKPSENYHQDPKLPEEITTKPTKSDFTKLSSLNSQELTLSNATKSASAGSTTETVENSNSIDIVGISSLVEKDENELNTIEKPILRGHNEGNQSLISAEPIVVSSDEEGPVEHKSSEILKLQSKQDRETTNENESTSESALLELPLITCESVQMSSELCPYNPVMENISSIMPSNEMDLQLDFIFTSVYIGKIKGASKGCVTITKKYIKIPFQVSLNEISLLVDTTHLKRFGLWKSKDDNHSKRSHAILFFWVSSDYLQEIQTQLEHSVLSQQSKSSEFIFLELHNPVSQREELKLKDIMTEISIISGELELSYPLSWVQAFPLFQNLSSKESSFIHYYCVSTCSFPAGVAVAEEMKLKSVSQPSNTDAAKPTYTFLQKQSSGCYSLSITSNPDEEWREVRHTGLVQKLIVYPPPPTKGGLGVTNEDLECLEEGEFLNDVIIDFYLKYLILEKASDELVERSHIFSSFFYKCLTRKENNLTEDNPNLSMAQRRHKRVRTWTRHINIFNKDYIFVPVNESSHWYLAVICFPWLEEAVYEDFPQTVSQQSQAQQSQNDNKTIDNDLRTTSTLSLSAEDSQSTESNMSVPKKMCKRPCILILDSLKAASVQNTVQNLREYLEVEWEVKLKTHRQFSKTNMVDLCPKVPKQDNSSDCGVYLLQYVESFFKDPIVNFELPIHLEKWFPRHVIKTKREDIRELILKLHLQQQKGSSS

[2] = biological target: Serine/threonine-protein phosphatase PP1-alpha catalytic subunit (Homo sapiens, UniProt P62136); test: PP1 phosphatase inhibitors, dose response, biochemical, fluorescence (AID 2394)
Chain of Serine/threonine-protein phosphatase PP1-alpha catalytic subunit (P62136 whole entry, the tested form may be a part): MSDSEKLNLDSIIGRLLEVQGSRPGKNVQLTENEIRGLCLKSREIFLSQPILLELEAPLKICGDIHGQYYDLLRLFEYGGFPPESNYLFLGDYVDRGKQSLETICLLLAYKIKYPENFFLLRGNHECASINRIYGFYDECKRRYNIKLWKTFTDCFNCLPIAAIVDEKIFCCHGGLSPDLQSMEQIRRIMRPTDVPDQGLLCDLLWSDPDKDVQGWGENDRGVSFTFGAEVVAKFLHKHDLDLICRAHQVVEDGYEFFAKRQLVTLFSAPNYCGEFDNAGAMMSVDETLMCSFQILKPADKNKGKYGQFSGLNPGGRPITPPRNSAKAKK

LIM domain kinase 1 = LIM domain kinase 1 (Homo sapiens, UniProt P53667); test: Navigating the Kinome. Panel member name: LIMK1; format: functional
Chain of LIM domain kinase 1 (P53667 whole entry, the tested form may be a part): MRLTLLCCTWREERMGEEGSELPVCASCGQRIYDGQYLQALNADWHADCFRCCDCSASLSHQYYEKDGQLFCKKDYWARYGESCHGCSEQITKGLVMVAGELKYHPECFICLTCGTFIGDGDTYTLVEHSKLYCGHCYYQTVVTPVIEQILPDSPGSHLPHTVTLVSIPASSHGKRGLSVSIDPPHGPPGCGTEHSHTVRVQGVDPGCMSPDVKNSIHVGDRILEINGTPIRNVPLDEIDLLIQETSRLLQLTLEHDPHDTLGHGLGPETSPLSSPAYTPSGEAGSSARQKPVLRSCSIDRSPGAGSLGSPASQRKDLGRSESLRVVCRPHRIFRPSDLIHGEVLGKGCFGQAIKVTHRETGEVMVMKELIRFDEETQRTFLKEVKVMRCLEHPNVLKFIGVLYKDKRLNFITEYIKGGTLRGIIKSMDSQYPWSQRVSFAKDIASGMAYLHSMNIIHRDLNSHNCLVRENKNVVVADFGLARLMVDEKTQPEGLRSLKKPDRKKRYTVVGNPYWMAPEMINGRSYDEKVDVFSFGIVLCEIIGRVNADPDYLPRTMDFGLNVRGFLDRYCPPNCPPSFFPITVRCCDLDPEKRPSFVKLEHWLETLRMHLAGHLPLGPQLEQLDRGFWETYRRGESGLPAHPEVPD

[3] = biological target: Tyrosine-protein kinase Fyn (Homo sapiens, UniProt P06241); format: functional
Misshapen-like kinase 1 = Misshapen-like kinase 1 (Homo sapiens, UniProt Q8N4C8); format: functional;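 also: kinome panel screen with MINK as the panel member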
[4] = biological target: Receptor tyrosine-protein kinase erbB-2 (Homo sapiens, UniProt P04626); test: Navigating the Kinome. Panel member name: ERBB2; format: functional
[5] = biological target: Phosphorylase b kinase gamma catalytic chain, liver/testis isoform (Homo sapiens, UniProt P15735); format: functional;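 also: PHKG2 measured as one member of a kinome-wide kinase panel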
Chain of Phosphorylase b kinase gamma catalytic chain, liver/testis isoform (P15735 whole entry, canonical isoform): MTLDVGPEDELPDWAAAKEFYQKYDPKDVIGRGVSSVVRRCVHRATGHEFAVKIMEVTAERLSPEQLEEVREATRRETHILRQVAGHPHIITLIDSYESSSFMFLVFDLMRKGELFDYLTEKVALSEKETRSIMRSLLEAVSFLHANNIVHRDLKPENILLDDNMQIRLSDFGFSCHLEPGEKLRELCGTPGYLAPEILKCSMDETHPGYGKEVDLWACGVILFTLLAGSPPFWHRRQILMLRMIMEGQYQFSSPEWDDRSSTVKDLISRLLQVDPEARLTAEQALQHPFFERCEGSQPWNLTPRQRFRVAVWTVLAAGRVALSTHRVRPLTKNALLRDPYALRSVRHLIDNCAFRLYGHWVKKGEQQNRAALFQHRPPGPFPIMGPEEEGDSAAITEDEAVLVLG

[6] = biological target: Cyclin-dependent kinase 5 (Homo sapiens, UniProt Q00535); format: functional;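 also: CDK5 measured as one member of a kinase profiling panel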
Chain of Cyclin-dependent kinase 5 (Q00535 whole entry): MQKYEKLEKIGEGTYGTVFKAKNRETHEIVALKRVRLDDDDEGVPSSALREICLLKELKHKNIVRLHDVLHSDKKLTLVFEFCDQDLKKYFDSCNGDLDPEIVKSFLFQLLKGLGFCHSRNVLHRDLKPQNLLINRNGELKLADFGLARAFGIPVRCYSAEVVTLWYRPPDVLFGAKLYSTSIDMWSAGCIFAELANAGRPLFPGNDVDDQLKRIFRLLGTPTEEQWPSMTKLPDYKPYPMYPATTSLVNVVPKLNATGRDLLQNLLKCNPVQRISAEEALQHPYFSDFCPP

[7] = biological target: Serine/threonine-protein kinase PLK1 (Homo sapiens, UniProt P53350); format: functional;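 also: PLK1 measured as one member of a kinome-wide profiling panel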
Chain of Serine/threonine-protein kinase PLK1 (P53350 whole entry): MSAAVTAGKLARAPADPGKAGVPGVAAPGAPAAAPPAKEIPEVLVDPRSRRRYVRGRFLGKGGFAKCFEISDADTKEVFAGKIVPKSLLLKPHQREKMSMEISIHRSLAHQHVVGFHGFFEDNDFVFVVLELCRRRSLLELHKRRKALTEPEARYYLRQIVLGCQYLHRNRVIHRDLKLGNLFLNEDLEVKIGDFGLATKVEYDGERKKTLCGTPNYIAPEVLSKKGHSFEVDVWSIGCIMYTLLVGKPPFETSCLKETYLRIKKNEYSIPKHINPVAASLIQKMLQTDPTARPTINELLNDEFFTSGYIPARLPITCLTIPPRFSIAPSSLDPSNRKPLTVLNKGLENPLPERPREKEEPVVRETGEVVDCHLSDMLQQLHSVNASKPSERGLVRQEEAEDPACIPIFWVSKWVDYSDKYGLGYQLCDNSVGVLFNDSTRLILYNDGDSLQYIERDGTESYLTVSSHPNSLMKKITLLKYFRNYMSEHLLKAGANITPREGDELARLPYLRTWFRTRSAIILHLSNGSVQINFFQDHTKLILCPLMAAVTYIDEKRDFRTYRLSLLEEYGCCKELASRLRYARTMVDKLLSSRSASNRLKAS

[8] = biological target: Cyclin-dependent kinase 2 (Homo sapiens, UniProt P24941); format: functional;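 also: CDK2 measured as one member of a broad kinome profiling panel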
[9] = biological target: Dual specificity protein kinase CLK2 (Homo sapiens, UniProt P49760); format: functional
[10] = biological target: Receptor-type tyrosine-protein kinase FLT3 (Homo sapiens, UniProt P36888); format: functional;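 also: FLT3 was tested as one member of a kinome-wide kinase panel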
[11] = biological target: Mitogen-activated protein kinase 8 (Homo sapiens, UniProt P45983); format: functional;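 also: value comes from one member of a kinome-wide kinase profiling panel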
[12] = biological target: Fibroblast growth factor receptor 3 (Homo sapiens, UniProt P22607); format: functional
[13] = biological target: STE20-like serine/threonine-protein kinase (Homo sapiens, UniProt Q9H2G2); format: functional
[14] = biological target: RAC-alpha serine/threonine-protein kinase (Homo sapiens, UniProt P31749); format: functional;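 also: AKT1 affinity measured as one member of a kinome-wide kinase profiling panel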
[15] = biological target: Mitogen-activated protein kinase kinase kinase 20 (Homo sapiens, UniProt Q9NYL2); format: functional
Chain of Mitogen-activated protein kinase kinase kinase 20 (Q9NYL2 whole entry, the tested form may be a part): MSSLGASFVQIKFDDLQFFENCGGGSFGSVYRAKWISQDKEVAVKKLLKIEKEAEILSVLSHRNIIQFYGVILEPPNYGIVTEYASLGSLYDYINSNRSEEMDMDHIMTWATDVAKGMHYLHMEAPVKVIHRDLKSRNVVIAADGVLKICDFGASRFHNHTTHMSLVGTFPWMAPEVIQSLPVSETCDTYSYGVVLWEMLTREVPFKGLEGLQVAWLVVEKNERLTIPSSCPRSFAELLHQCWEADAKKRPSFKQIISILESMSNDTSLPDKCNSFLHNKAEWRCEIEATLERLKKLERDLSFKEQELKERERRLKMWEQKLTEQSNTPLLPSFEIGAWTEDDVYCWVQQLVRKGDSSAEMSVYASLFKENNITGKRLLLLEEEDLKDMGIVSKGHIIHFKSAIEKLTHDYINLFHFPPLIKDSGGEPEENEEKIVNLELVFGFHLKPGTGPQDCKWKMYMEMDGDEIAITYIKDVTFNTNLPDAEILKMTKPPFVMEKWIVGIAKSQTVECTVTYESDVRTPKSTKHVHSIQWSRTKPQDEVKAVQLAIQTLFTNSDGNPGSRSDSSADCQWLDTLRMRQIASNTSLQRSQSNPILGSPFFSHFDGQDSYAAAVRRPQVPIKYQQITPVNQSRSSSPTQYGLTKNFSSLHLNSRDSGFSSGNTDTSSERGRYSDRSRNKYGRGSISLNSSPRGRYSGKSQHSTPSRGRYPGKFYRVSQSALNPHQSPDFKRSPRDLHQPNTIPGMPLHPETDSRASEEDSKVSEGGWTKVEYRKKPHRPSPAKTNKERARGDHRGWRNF

[16] = biological target: PAS domain-containing serine/threonine-protein kinase (Homo sapiens, UniProt Q96RG2); format: functional
[17] = biological target: T2, Testis-specific serine/threonine-protein kinase 2 (Homo sapiens, UniProt Q96PF2); format: functional;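 also: part of the Navigating the Kinome panel, target entry STK22B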
T2 sequence (Q96PF2 whole entry): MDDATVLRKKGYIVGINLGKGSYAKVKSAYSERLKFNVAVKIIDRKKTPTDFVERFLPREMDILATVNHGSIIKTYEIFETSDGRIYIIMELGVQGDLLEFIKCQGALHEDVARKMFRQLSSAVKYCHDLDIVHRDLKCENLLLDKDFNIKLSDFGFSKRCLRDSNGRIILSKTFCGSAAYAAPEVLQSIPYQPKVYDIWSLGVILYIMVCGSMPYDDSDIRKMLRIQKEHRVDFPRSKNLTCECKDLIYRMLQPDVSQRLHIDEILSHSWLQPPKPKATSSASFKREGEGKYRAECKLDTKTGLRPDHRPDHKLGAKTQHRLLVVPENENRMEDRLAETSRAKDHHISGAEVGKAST

[18] = biological target: Calcium/calmodulin-dependent protein kinase type 1 (Homo sapiens, UniProt Q14012); format: functional
Chain of Calcium/calmodulin-dependent protein kinase type 1 (Q14012 whole entry): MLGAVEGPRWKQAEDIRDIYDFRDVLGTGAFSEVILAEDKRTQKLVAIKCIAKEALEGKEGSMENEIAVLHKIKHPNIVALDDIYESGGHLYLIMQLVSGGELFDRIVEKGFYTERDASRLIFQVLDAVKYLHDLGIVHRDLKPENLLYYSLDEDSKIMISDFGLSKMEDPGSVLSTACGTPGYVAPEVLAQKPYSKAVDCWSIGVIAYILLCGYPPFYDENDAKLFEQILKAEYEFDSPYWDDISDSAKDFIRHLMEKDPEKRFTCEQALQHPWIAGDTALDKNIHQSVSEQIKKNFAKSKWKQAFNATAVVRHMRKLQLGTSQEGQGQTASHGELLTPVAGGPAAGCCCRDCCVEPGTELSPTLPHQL

Aurora kinase B = Aurora kinase B (Homo sapiens, UniProt Q96GD4); format: functional
Chain of Aurora kinase B (Q96GD4 whole entry): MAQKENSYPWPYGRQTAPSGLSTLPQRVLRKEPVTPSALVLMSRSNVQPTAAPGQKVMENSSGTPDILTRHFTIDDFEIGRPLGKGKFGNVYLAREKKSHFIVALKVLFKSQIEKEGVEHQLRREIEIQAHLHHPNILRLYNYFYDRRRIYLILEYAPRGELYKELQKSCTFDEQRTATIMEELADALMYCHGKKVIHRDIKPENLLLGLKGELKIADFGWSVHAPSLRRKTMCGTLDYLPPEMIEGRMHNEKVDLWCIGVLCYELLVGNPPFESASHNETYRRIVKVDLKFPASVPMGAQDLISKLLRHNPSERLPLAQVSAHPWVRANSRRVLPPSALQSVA

Cysteine protease ATG4B = Cysteine protease ATG4B (Homo sapiens, UniProt Q9Y4P1); format: functional;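 also: Fluorescence-based dose-response confirmation assay measuring inhibition of ATG4B activity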
Chain of Cysteine protease ATG4B (Q9Y4P1 whole entry): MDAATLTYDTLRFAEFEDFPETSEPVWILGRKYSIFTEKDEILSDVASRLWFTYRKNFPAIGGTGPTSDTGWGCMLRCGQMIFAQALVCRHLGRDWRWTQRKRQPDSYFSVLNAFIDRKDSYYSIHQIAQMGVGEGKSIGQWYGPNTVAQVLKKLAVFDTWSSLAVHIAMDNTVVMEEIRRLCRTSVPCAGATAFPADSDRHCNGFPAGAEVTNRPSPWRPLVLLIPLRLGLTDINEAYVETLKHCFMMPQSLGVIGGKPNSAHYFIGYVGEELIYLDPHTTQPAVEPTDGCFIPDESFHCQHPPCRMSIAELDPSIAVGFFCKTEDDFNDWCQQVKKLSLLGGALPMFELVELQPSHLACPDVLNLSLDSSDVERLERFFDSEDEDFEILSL

[19] = biological target: RNA-editing ligase 1, mitochondrial (Trypanosoma brucei brucei, UniProt P86926); test: TbREL1 ligase inhibitors, dose response, biochemical, fluorescence, Trypanosoma brucei (AID 1117295); format: functional
Chain of RNA-editing ligase 1, mitochondrial (P86926 whole entry): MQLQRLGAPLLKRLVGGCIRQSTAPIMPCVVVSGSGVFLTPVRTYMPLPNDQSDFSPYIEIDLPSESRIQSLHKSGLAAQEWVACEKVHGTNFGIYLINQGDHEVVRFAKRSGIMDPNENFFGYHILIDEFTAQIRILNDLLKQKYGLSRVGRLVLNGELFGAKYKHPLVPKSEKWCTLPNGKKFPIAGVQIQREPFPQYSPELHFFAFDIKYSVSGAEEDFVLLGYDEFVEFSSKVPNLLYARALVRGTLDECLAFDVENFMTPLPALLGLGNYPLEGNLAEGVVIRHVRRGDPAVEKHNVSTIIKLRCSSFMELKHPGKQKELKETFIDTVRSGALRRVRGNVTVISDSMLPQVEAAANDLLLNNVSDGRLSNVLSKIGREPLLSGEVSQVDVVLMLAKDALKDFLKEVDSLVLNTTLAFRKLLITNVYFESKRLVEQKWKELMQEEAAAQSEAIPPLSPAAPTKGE

Phospholipase A2 = Phospholipase A2 (Homo sapiens, UniProt P04054); format: functional;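 also: confirmatory dose-response counterscreen on phospholipase A2, testing hits that came from an ultra-high-throughput screen for ATG4B inhibitors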
Chain of Phospholipase A2 (P04054 whole entry): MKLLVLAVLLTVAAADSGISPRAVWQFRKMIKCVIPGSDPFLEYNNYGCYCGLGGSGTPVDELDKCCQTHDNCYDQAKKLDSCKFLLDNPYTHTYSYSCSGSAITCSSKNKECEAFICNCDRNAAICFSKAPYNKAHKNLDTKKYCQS

[20] = biological target: 1-phosphatidylinositol 4,5-bisphosphate phosphodiesterase gamma-1 (Homo sapiens, UniProt P19174); test: Counterscreen for inhibitors of phospholipase C isozymes (PLC-B3): Fluorescence-based biochemical high throughput dose response assay to identify inhibitors of phospholipase C isozymes (PLC-gamma1).
[21] = HepG2 cell cytotoxicity, dose response, cytotoxicity control for Shn3 inhibitor project, CellTiter-Glo, cherry-picked (AID 624134); format: functional, cell-based

With `CC(=O)c1ccc(NC2=C(N3CCOCC3)C(=O)c3ccccc3C2=O)cc1` the IC50 [1] was 18 µM (active) and the IC50 [2] was > 67 µM (not active).
In the case of `COc1cc2ncn(-c3cc(OCc4ccccc4C(F)(F)F)c(C(N)=O)s3)c2cc1OC` [GW843682X], the Ki (LIM domain kinase 1) is reported as 7.94 µM (active), the Ki [3] is reported as > 0.794 µM (inactive) and the Ki (Misshapen-like kinase 1) is reported as > 7.94 µM (inactive). For the same compound, the Ki [4] was 1 µM (active), the Ki [5] was > 5.01 µM (inactive) and the Ki [6] was > 10 µM (inactive). For the same compound, the Ki [7] was 0.0126 µM (active), the Ki [8] was > 7.94 µM (inactive) and the Ki [9] was > 7.94 µM (inactive). The Ki [10] was 0.0501 µM (active), the Ki [11] was > 3.16 µM (inactive) and the Ki [12] was > 2 µM (inactive). For the same compound, the Ki [13] was 0.0126 µM (active), the Ki [14] was > 7.94 µM (inactive) and the Ki [15] was > 7.94 µM (inactive). For the same compound, the Ki [16] was > 1.58 µM (inactive), the Ki [17] was 0.0631 µM (active) and the Ki [18] was > 7.94 µM (inactive). For the same compound, the Ki (Aurora kinase B) was > 6.31 µM (inactive).
For `CCCc1nc2c(=O)n(C)c(=O)nc-2n(C)n1`, the IC50 (Cysteine protease ATG4B) was 2.84 µM (active), the IC50 [19] was 0.494 µM (active) and the IC50 (Phospholipase A2) was > 80 µM (inactive). For the same compound, the IC50 [20] was > 1.51 µM (active) and the AC50 [21] was 4.96 µM (active).
